Values quoted from earlier work as cited in patent US12471592B2, “Cytoprotective compositions for short-term cells storage and transportation without cryopreservation and deep freezing” (priority 2021, dated 2025).
Like-named read-outs stand apart in the source and are kept apart here.

Legend:
[1] = system: mouse blastocysts; conditions: for blastocysts survived: 20% vol/vol CPAs for 40 min at room temperature; for blastocysts subsequently developed: 30% vol/vol CPAs for 10 min at room temperature
[2] = system: vascular endothelial cells; conditions: vitrifying concentrations, 2-4° C. for 9 min
[3] = system: endothelial cells; conditions: reducing concentration from 3.0 M to 2.0 M
[4] = system: vascular endothelial cells; conditions: for increase of permeability: raising the temperature from 2-4° C. to 22° C.; for Permeability: vascular endothelial cells, 2-4° C.
[5] = system: Rat retina cells; conditions: 24 hr exposure
[6] = system: Chinese hamster ovary cell lines
[7] = system: fibroblasts; conditions: 1% DMSO, within 5 sec
[8] = system: mouse morula; conditions: for minimum concentration giving significant reduction of mouse morula survival: 5 min of 25° C. exposure
[9] = system: rat heart rate
[10] = system: rat myocardium
[11] = system: bacteria; conditions: 33% DMSO for 10 min
[12] = system: fish oocytes
[13] = system: mouse zygotes
[14] = system: mouse oocytes; conditions: increasing molarity
[15] = system: ARPE 19 human retinal pigment epithelial cell line
[16] = cytochrome P450 oxidation system added

Row | SMILES | blastocysts survived [1] | cell survival [2] | increase of permeability [4] | Permeability [4] | blastocysts subsequently developed [1] | chromosome damage ([6]; without oxidation system) | minimum concentration giving significant reduction of mouse morula survival [8] | also measured
1 | CC(O)CCO (stereo not drawn) [1,3-butanediol] | 64.2% | – | – | – | – | – | – | –
2 | CC(O)C(C)O (stereo not drawn) [BD, 2,3-butanediol] | 8.3% | 76.3% | 17 fold | 4.1 cm/sec×10^−6 | 8.7% | – | – | factor by which endothelial cell loss was cut [3]: 35
3 | C[S+](C)[O-] [DMSO, dimethylsulfoxide] | 96.7% | 37.0% | 17 fold | 2.4 cm/sec×10^−6 | 25.0% | No chromosome damage | 5 M | factor by which endothelial cell loss was cut [3]: 3; concentration at which apoptosis was exhibited [5]: ≥ 0.1 % vol/vol; chromosome damage [6, 16]: not; increase of intracellular calcium [7]: two- to six-fold; concentrations giving dose-dependent reduction in rat heart rate [9]: above 0.14 M; concentration giving irreversible ultrastructural alterations to rat myocardium ([10]; at 15° C.): above 2.82 M; concentration giving irreversible ultrastructural alterations to rat myocardium ([10]; at 30° C.): above 1.41 M; increase in mutagenicity [11]: 10 fold
4 | OCCO [EG, ethylene glycol] | 95.8% | 33.2% | nine-fold | 2.0 cm/sec×10^−6 | 74.6% | No chromosome damage | 7 M | chromosome damage [6, 16]: substantial chromosome damage
5 | OCC(O)CO [GLY, glycerol] | 81.7% | – | – | – | – | – | 6 M | –
6 | CO [METH, methanol] | – | – | – | – | – | – | – | concentrations resulting in protein damage or proteolysis [12]: above 6 M; concentration showing reduced mouse morula survival ([8]; 10 min exposure): 6 M
7 | CC(O)CO (stereo not drawn) [PG, propylene glycol] | 87.5% | 63.6% | 13 fold | 3.0 cm/sec×10^−6 | 2.1% | substantial chromosome damage | 4 M | concentration impairing the developmental potential of mouse zygotes by decreasing intracellular pH [13]: > 2.5 M; formaldehyde increase relative to DMSO or GLY [14]: more than 30 fold
8 | O=c1c(O)c(-c2ccc(O)c(O)c2)oc2cc(O)cc(O)c12 [quercetin] | – | – | – | – | – | – | – | level of ROS ([15]; compared with the control groups, 300 μM H2O2): decreased; cell viability ([15]; pretreated with quercetin (0.80 μM) before exposure to 300 μM H2O2): preserved in quercetin group in a dose dependent manner, particularly at 20 μM
